The text below walks through data of article PMC4871610 (Cell, 2015).

Test [1] concerns the target T1, YeaW (Escherichia coli, UniProt P0ABR7).
T1 sequence (P0ABR7 1-374): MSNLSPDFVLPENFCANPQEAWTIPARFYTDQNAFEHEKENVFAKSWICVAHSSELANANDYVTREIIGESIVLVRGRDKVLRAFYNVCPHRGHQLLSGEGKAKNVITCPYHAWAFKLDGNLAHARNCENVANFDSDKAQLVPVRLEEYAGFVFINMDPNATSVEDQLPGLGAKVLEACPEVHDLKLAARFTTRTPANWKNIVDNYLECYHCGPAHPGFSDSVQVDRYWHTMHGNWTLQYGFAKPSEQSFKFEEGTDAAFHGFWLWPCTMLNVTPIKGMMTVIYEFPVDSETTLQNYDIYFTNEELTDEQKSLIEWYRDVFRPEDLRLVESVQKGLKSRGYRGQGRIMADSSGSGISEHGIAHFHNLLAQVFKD
Put plainly: d9-TMA production by purified YeaW/X, LC/MS/MS. It counts as biochemical.

Test [2] has as its target T2, CutC (choline TMA lyase) (Proteus mirabilis, UniProt B4EYG1).
T2 sequence (B4EYG1 1-1142): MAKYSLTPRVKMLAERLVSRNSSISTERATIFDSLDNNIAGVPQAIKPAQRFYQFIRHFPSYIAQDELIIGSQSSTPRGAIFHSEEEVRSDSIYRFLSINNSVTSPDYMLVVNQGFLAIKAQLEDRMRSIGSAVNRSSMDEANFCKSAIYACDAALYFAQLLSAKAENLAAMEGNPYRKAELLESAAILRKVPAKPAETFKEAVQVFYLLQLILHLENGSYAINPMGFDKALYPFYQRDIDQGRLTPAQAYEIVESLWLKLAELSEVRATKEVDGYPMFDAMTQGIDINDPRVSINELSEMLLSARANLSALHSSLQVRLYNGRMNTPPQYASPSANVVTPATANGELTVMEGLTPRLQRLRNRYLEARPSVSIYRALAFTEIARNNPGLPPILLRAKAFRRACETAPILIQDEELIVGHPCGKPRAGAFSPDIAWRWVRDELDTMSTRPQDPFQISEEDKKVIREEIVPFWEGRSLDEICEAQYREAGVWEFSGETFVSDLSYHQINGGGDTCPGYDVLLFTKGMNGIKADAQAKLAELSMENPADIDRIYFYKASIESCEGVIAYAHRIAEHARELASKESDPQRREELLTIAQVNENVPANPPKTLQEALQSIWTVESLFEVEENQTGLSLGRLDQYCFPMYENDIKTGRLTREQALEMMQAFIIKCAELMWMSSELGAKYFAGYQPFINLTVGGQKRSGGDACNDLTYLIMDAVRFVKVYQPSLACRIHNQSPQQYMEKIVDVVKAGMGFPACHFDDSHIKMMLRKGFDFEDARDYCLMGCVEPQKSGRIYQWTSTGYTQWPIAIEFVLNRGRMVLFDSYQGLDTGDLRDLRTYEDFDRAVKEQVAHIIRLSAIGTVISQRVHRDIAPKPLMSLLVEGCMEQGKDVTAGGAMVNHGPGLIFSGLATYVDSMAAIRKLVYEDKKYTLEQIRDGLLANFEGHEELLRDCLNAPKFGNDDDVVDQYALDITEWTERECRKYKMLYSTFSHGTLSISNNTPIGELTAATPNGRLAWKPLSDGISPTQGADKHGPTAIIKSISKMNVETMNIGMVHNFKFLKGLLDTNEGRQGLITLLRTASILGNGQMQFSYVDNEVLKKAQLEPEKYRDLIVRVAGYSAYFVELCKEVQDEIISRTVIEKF
T2 sequence (B4EYG0 1-316 partner): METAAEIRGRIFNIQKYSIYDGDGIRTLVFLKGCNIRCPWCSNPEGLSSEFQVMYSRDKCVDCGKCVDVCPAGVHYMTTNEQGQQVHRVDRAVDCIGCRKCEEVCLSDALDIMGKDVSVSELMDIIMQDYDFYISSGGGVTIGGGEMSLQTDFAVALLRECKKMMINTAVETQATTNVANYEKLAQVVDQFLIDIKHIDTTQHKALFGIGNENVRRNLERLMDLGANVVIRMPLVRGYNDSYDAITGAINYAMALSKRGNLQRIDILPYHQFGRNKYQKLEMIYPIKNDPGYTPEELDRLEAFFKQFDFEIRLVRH
The experiment in a line: d9-TMA production from d9-choline in cutC/D-transformed E. coli lysate, LC/MS/MS. Format: biochemical.

The target in test [3] is T2, CutC (choline TMA lyase). The experiment in a line: d9-TMA production from d9-choline in cutC/D-transformed E. coli lysate. Format: cell-based.
Test [4] deals with T2, CutC (choline TMA lyase). Put plainly: d9-TMA production by purified CutC and CutD, LC/MS/MS. Format: biochemical.
Test [5] addresses T2, CutC (choline TMA lyase). The experiment in a line: anaerobic d9-TMA production with purified CutC and CutD, LC/MS/MS. Format: biochemical.

Consider `C[N+](C)(C)CC(O)CC(=O)[O-]` (centres unmarked) [carnitine], for which the “d9-TMA production by purified YeaW/X, LC/MS/MS” value in test [1] is “Purified YeaW/X showed enzymatic cleavage of d9-carnitine”. For `C[Si](C)(C)CCO` [TMSi-ETOH, 2-(trimethylsilyl)ethanol], the 50% inhibitory concentration (IC50) – broadly, the midpoint of a concentration-inhibition curve – in test [2] is about 10 µM.

As to `C[P+](C)(C)CCO` [P-choline, (2-Hydroxyethyl)(trimethyl)phosphonium], the “d9-TMA production from d9-choline in cutC/D-transformed E. coli lysate (activity)” value in test [3] is given as “phosphonium analogue of choline (P-choline) showed a unique effect by augmenting cutC/D choline TMA lyase activity”. Turning to `C[N+](C)(C)CCO` [choline], in test [4], the “d9-TMA production by purified CutC and CutD, LC/MS/MS” value was “both purified polypeptides showed dose-dependent inhibition in TMA production from either choline or GPC substrates”. Compound `CC(C)(C)CCO` [DMB, 3,3-dimethyl-1-butanol] gave an IC50 in test [5] of about 10 µM.
